Results: US8685726B2, “Small molecules supporting pluripotent cell growth and methods thereof” (Viacyte, Inc., priority 2009, dated 2014)

Legend:
[1] = tested on: hES cells (e.g., BGO2 cells); assay: Low-density colony forming / colony counting assay (AP+ colonies); format: cell-based, human
Experimental: FIG. 2. Low density plating assay of hES cells (e.g., BGO2 cells). 10000 cells/well were plated in 6-well trays in StemPro® hESC SFM (Life Technologies) medium and stained with alkaline phosphatase (AP+) after 7 days. Y (Y27632), ACh (acetylcholine), NMDA (N-methyl-D-aspartic acid), NE ((−)-Norepinephrine), NE.Bit ((±)-Norepinephrine (+)-bitartrate). Compounds were added at 10 or 50 μM as indicated.
FIG. 3. Low density plating assay of hES cells. (A) 200-10000 cells/well were plated in […] trays in StemPro® hESC SFM medium, or StemPro® hESC SFM +50 μM NE, or +50 μM ACh, and stained with alkaline phosphatase (AP+) after 8 days. […] ACh (acetylcholine), NE ((±)-Norepinephrine (+)-bitartrate). […]
About 10^4 hES cells/well were plated in 6-well trays in StemPro® hESC SFM, in the presence of different compounds and cultured for about 7 days. The cultures were then fixed, stained for alkaline phosphatase activity and colonies were counted (FIG. 2). […] The (±)-Norepinephrine (+)-bitartrate salt was used for all subsequent experiments involving norepinephrine (NE) unless specifically described otherwise.
A similar colony counting experiment was performed using a range of cell densities (FIG. 3). […] See Robins and Schulz 2009, supra. […]

CyT49 cells = assay: Suspension aggregate culture, cell counts and aggregate diameters; format: cell-based, human; details: for serial passages maintained in suspension with undifferentiated morphology: suspension culture, 50 μM
Experimental: FIG. 10. Effects of NE and ACh in suspension culture of hES cell. (A) 5×10^6 CyT49 cells were seeded in 5 ml StemPro® hESC SFM containing heregulin, LR3-IGF1, Activin and the indicated neurotransmitters at 50 μM in low-attachment 6-well trays and placed at 100 rpm. Undifferentiated suspension aggregates were imaged on day 4. (B) 24 hours after seeding, two wells from each condition were harvested and counted to determine the number of viable cells. (C) Cell counts of each condition when the cultures were split on day 4. (D) The images in (A) were used to determine aggregate diameters using the ImagePro software measurement tool. Average diameters and standard deviations from 50-100 aggregates from each condition are shown. (E) Passage 1 cell counting data. 5×10^6 CyT49 hES cells from p0 cells in (A) were seeded into the same conditions. The aggregates in the condition containing Y27632 were larger and had to be passaged 3 days after seeding, before the centers of the largest aggregates became necrotic. Conversely, the other conditions could be cultured for 6 days before passaging, resulting in higher cell counts.
FIG. 11. Suspension hES cell cultured with NE, […] remain undifferentiated. CyT49 cells were grown as suspension aggregates in the presence of NE, […] for 16 passages without differentiating morphologically. After p10, some cells were re-plated to adherent culture and examined by karyotyping and immunofluorescent staining for OCT4 and Tra-1-61. All cultures remained undifferentiated and expressed these pluripotency markers uniformly. (SP) StemPro® SFM HIA, NE (+NE at 50 μM), ACh (+ACh at 50 μM), NE/ACh (+NE/ACh at 50 μM). Karyotype data is shown to the right. […] Cultures containing ACh were aneuploid.
Small molecule ligands that support survival or self-renewal at low cell densities could also be expected to have beneficial effects in other culture formats. Applicants have previously developed a suspension culture system for hES cells that enables serial propagation of cells and effective expansion of cultures. Human ES cells, at least BG02 and CyT49 cells, have been maintained in suspension for greater than 10 passages without differentiation. The basis of the technique is to dissociate cultures to single cells with reagents that preserve high viability, such as Accutase™, TrypLE or cell dispersal buffer, then aggregate defined concentrations of cells in defined medium in rotational culture. These methods are described in more detail in International Application PCT/US2008/082356, entitled STEM CELL AGGREGATE SUSPENSION COMPOSITIONS AND METHODS OF DIFFERENTIATION THEREOF, filed Nov. 4, 2008; and International Application PCT/US2007/062755, entitled COMPOSITIONS AND METHODS FOR CULTURING DI[…], filed Feb. 23, 2007, which are herein incorporated by reference in their entireties. Self-aggregation of hES cells occurs in the absence of added extracellular matrix (ECM) or ECM-like proteins and is presumed to be driven in part by homotypic interaction of E-cadherin. The aggregates that are formed expand over 3-4 days and are kept apart from each other by the shear forces generated by rotational culture. Cells are blocked from differentiating by the self-renewal signaling provided by the defined medium and retain their pluripotent characteristics: marker expression, normal karyotype, and differentiation potential in vitro and in teratomas. […]

Row | SMILES | colonies detected compared to StemPro hESC SFM medium alone ([1]; 50 μM, 200-10000 cells/well, 8 days) | fewest plated cells per well at which colonies were observed ([1]; 50 μM, 8 days) [plated cells] | support of colony formation at low density ([1]; 10^4 cells/well, StemPro hESC SFM, 7 days, compounds at 10 or 50 μM) | serial passages maintained in suspension with undifferentiated morphology (CyT49 cells) [serial passages] | aggregate size on day 4 (CyT49 cells; suspension, StemPro hESC SFM HIA, neurotransmitters 50 μM)
1 | NCC(O)c1ccc(O)c(O)c1 (racemic) [NE, (±)-Norepinephrine (+)-bitartrate] | More than four times as many colonies | 1000 | supported elevated colony formation | 12 | smaller aggregates
2 | CC(=O)OCC[N+](C)(C)C [ACh, acetylcholine] | – | 500 | – | 12 | –
